ChEMBL document CHEMBL3997838, “Chemical constituents from Sophora tonkinensis and their glucose transporter 4 translocation activities” (Bioorg Med Chem Lett, 2017)
Calls of active or inactive are those of the source. The rule behind the calls is not given here.

These compounds were tested against T1, Solute carrier family 2, facilitated glucose transporter member 4 (Rattus norvegicus) (UniProt P19357) (assay: Enhancement of GLUT4 translocation at plasma membrane of rat L6 cells expressing pIRAP-mOrange at 10 uM after 30 mins by fluorescence assay relative to control).
T1 sequence (whole entry): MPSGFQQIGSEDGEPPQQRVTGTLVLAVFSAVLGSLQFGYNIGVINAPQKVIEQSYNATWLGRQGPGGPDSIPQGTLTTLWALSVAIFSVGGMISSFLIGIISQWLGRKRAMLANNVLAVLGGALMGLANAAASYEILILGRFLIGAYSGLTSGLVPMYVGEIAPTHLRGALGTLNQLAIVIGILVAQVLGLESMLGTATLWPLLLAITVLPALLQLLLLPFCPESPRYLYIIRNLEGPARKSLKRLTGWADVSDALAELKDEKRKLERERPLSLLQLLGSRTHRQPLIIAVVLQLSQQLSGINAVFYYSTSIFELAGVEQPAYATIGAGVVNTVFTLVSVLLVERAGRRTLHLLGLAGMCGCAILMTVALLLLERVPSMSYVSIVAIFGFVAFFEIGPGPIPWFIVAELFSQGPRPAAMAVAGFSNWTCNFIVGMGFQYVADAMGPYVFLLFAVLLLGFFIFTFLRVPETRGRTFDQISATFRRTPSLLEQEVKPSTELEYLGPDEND

SMILES | Activity | fold change (FC)
O=c1c(O)c(-c2ccc(O)c(O)c2)oc2cc(O)cc(O)c12 | inactive | 
CC(C)=CCc1cc2c(c(CC=C(C)C)c1O)O[C@H](c1ccc(O)cc1)CC2=O |  | 1.35 to 2.75
OC[C@H]1O[C@@H](Oc2ccc3c(c2)OC[C@H]2c4cc5c(cc4O[C@@H]32)OCO5)[C@H](O)[C@@H](O)[C@@H]1O | inactive | 
CC(C)=CCc1cc([C@@H]2CC(=O)c3ccc(O)c(CC=C(C)C)c3O2)cc(CC=C(C)C)c1O |  | 2.75
CC(C)=CCc1c(O)cc(O)c2c1OC[C@H]1c3cc4c(cc3O[C@@H]21)OCO4 |  | 0.79
CC(C)=CCc1cc([C@@H]2CC(=O)c3ccc(O)c(CC=C(C)C)c3O2)ccc1O |  | 1.35 to 2.75
CC(C)=CCc1c2c(cc3c1O[C@H](c1ccc(O)cc1O)CC3=O)C=CC(C)(C)O2 |  | 1.35 to 2.75
Oc1ccc2c(c1)OC[C@H]1c3cc4c(cc3O[C@@H]21)OCO4 | inactive | 
CC(C)=CCc1c(O)c(CC=C(C)C)c2oc(-c3ccc(O)cc3)c(O)c(=O)c2c1O |  | 1.35 to 2.75
CC(C)=CCc1cc([C@@H]2CC(=O)c3ccc(O)c(CC=C(C)C)c3O2)cc2c1OC(C)(C)C=C2 |  | 1.35 to 2.75
COc1ccc2c(c1)O[C@H]1c3ccc(O)cc3OC[C@@H]21 | inactive | 
CC(=O)OC[C@H]1O[C@@H](Oc2ccc3c(c2)OC[C@H]2c4cc5c(cc4O[C@@H]32)OCO5)[C@H](O)[C@@H](O)[C@@H]1O | inactive | 

Each compound was assayed against T1, Solute carrier family 2, facilitated glucose transporter member 4 (Rattus norvegicus) (assay: Enhancement of GLUT4 translocation at plasma membrane of rat L6 cells expressing pIRAP-mOrange after 30 mins by laser-scanning confocal microscopic method).

SMILES | Activity
CC(C)=CCc1cc([C@@H]2CC(=O)c3ccc(O)c(CC=C(C)C)c3O2)cc(CC=C(C)C)c1O | Dose-dependent effect

Each compound was assayed against T1, Solute carrier family 2, facilitated glucose transporter member 4 (Rattus norvegicus) (assay: Enhancement of GLUT4 translocation at plasma membrane of rat L6 cells expressing pIRAP-mOrange at […] after 30 mins by laser-scanning confocal microscopic method relative to control).

SMILES | fold change (FC)
CC(C)=CCc1cc([C@@H]2CC(=O)c3ccc(O)c(CC=C(C)C)c3O2)cc(CC=C(C)C)c1O | 2.7
